In patent publication US6737383B1, “Herbicidal oxadiazolidines” (priority 1999, dated 2004):

Columns and labels:
wheat = assay: Test B pre/postemergence wheat; format: in vivo, Triticum aestivum; conditions: for Plant response rating, Wheat: Postemergence
Procedure, shortened: (§1)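 Response is a visual 0-to-10 score relative to untreated plants, where 0 means no effect and 10 means complete control, taken twelve to sixteen days after application. Treatments went onto soil at planting and onto foliage of 1- to 4-leaf plants, using a surfactant-containing non-phytotoxic solvent.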

bedstraw = assay: Test B pre/postemergence bedstraw; format: in vivo, Galium aparine
Procedure, shortened: as §1

velvetleaf = assay: Test B pre/postemergence velvetleaf; format: in vivo, Abutilon theophrasti; conditions: for Plant response rating, Velvetleaf: Postemergence
Procedure, shortened: as §1

duck salad = assay: Test B flood test duck salad; format: in vivo, Heteranthera limosa
Procedure, shortened: (§2)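 Flood test on plants grown to the 2-leaf stage; treated plants kept in greenhouse twelve to sixteen days, then visually rated against controls on a 0 (no effect) to 10 (complete control) scale.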

sugar beet = assay: Test B pre/postemergence sugar beet; format: in vivo, Beta vulgaris; conditions: for Plant response rating, Sugarbeets: Postemergence
Procedure, shortened: as §1

crabgrass = assay: Test B pre/postemergence crabgrass; format: in vivo, Digitaria sanguinalis
Procedure, shortened: as §1

rice = assay: Test B flood test rice; format: in vivo, Oryza sativa
Procedure, shortened: as §2

bamyardgrass = assay: Test B flood test barnyardgrass; format: in vivo, Echinochloa crus-galli
Procedure, shortened: as §2

blackgrass = assay: Test B pre/postemergence blackgrass; format: in vivo, Alopecurus myosuroides
Procedure, shortened: as §1

cocklebur = assay: Test B pre/postemergence cocklebur; format: in vivo, Xanthium strumarium
Procedure, shortened: as §1

wild oat = assay: Test B pre/postemergence wild oat; format: in vivo, Avena fatua; conditions: for Plant response rating, Wild oats: Postemergence
Procedure, shortened: as §1

purple nutsedge = assay: Test B pre/postemergence purple nutsedge; format: in vivo, Cyperus rotundus
Procedure, shortened: as §1

morningglory = assay: Test B pre/postemergence morningglory; format: in vivo, Ipomoea hederacea
Procedure, shortened: as §1

surinam grass = assay: Test B pre/postemergence surinam grass; format: in vivo, Brachiaria decumbens
Procedure, shortened: as §1

giant foxtail = assay: Test B pre/postemergence giant foxtail; format: in vivo, Setaria faberii
Procedure, shortened: as §1

pigweed = assay: Test B pre/postemergence pigweed; format: in vivo, Amaranthus retroflexus; conditions: for Plant response rating, Redroot pigweed: Postemergence
Procedure, shortened: as §1

[1] = Rate 500 g/ha, scale of 0 to 10 where 0 is no effect and 10 is complete control
[2] = Preemergence, Rate 62 g/ha, scale 0 to 10 (0 no effect, 10 complete control)
[3] = Preemergence, Rate 125 g/ha, scale 0 to 10, 0 is no effect, 10 is complete control
[4] = Preemergence, Rate 500 g/ha, scale of 0 to 10 where 0 is no effect and 10 is complete control
[5] = Rate 250 g/ha, scale of 0 to 10 where 0 is no effect and 10 is complete control
[6] = Postemergence, Rate 62 g/ha, scale of 0 to 10, 0 is no effect, 10 is complete control
[7] = Postemergence, Rate 125 g/ha, scale 0 to 10, 0 is no effect, 10 is complete control
[8] = Postemergence, Rate 500 g/ha, scale of 0 to 10 where 0 is no effect and 10 is complete control
[9] = Rate 250 g/ha, Postemergence, scale of 0 to 10 where 0 is no effect and 10 is complete control
[10] = Rate 62 g/ha, flood test species, Pre-emergence, visual evaluation after twelve to sixteen days
[11] = Rate 125 g/ha, under heading Pre-emergence, flood test species, visual evaluation after twelve to sixteen days
[12] = Rate 250 g/ha, Pre-emergence (flood test species), scale 0 to 10, 0 is no effect, 10 is complete control
[13] = Rate 500 g/ha, Pre-emergence section of Table B, 0 to 10 scale (0 no effect, 10 complete control)

CC(C)N(C(=O)n1oc(=O)n(CCc2ccccc2)c1=O)c1ccccc1 [Compound 567]
Plant response rating, Wheat (wheat; [1]): 0 | Wheat plant response rating (wheat; [2]): 0 | Wheat plant response rating (wheat; [3]): 0 | Wheat plant response rating (0 to 10 scale) (wheat; Preemergence, Rate 250 g/ha): 0 | Wheat plant response rating (wheat; [4]): 0 | Plant response rating, Wheat (wheat; [5]): 0 | Bedstraw plant response rating (bedstraw; [6]): 0 | Bedstraw plant response rating (bedstraw; [7]): 0 | Plant response rating, Bedstraw (bedstraw; [8]): 0 | Bedstraw plant response rating (bedstraw; [2]): 0 | Bedstraw plant response rating (bedstraw; [3]): 0 | Bedstraw plant response rating (0 to 10 scale) (bedstraw; Preemergence, Rate 250 g/ha): 0 | Bedstraw plant response rating (bedstraw; [4]): 0 | Plant response rating, Bedstraw (bedstraw; [9]): 0 | Plant response rating, Velvetleaf (velvetleaf; [1]): 2 | Velvetleaf plant response rating (velvetleaf; [2]): 0 | Velvetleaf plant response rating (velvetleaf; [3]): 0 | Velvetleaf plant response rating (0 to 10 scale) (velvetleaf; Preemergence, Rate 250 g/ha): 0 | Velvetleaf plant response rating (velvetleaf; [4]): 0 | Plant response rating, Velvetleaf (velvetleaf; [5]): 0 | Plant response rating, Ducksalad (0 to 10 scale, 0 is no effect, 10 is complete control) (duck salad; [10]): 0 | Ducksalad plant response rating (0 to 10 scale, 0 is no effect, 10 is complete control) (duck salad; [11]): 0 | Ducksalad plant response rating (duck salad; [12]): 0 | Ducksalad plant response rating (duck salad; [13]): 0 | Plant response rating, Sugarbeets (sugar beet; [1]): 0 | Sugarbeets plant response rating (sugar beet; [2]): 0 | Sugarbeets plant response rating (sugar beet; [3]): 0 | Sugarbeets plant response rating (0 to 10 scale) (sugar beet; Preemergence, Rate 250 g/ha): 0 | Sugarbeets plant response rating (sugar beet; [4]): 2 | Plant response rating, Sugarbeets (sugar beet; [5]): 0 | Crabgrass plant response rating (crabgrass; [6]): 3 | Crabgrass plant response rating (crabgrass; [7]): 7 | Plant response rating, Crabgrass (crabgrass; [8]): 8 | Crabgrass plant response rating (crabgrass; [2]): 0 | Crabgrass plant response rating (crabgrass; [3]): 9 | Crabgrass plant response rating (0 to 10 scale) (crabgrass; Preemergence, Rate 250 g/ha): 9 | Crabgrass plant response rating (crabgrass; [4]): 9 | Plant response rating, Crabgrass (crabgrass; [9]): 7 | Plant response rating, Rice (0 to 10 scale, 0 is no effect, 10 is complete control) (rice; [10]): 0 | Rice plant response rating (0 to 10 scale, 0 is no effect, 10 is complete control) (rice; [11]): 0 | Rice plant response rating (rice; [12]): 0 | Rice plant response rating (rice; [13]): 0 | Plant response rating, Barnyardgrass (0 to 10 scale, 0 is no effect, 10 is complete control) (bamyardgrass; [10]): 0 | Barnyardgrass plant response rating (0 to 10 scale, 0 is no effect, 10 is complete control) (bamyardgrass; [11]): 0 | Barnyardgrass plant response rating (bamyardgrass; [12]): 0 | Barnyardgrass plant response rating (bamyardgrass; [13]): 0 | Blackgrass plant response rating (blackgrass; [6]): 0 | Blackgrass plant response rating (blackgrass; [7]): 0 | Plant response rating, Blackgrass (blackgrass; [8]): 0 | Blackgrass plant response rating (blackgrass; [2]): 0 | Blackgrass plant response rating (blackgrass; [3]): 0 | Blackgrass plant response rating (0 to 10 scale) (blackgrass; Preemergence, Rate 250 g/ha): 0 | Blackgrass plant response rating (blackgrass; [4]): 7 | Plant response rating, Blackgrass (blackgrass; [9]): 0 | Cocklebur plant response rating (cocklebur; [6]): 0 | Cocklebur plant response rating (cocklebur; [7]): 0 | Plant response rating, Cocklebur (cocklebur; [8]): 2 | Cocklebur plant response rating (cocklebur; [2]): 0 | Cocklebur plant response rating (cocklebur; [3]): 0 | Cocklebur plant response rating (0 to 10 scale) (cocklebur; Preemergence, Rate 250 g/ha): 0 | Cocklebur plant response rating (cocklebur; [4]): 0 | Plant response rating, Cocklebur (cocklebur; [9]): 0 | Plant response rating, Wild oats (wild oat; [1]): 0 | Wild oats plant response rating (wild oat; [2]): 0 | Wild oats plant response rating (wild oat; [3]): 0 | Wild oats plant response rating (0 to 10 scale) (wild oat; Preemergence, Rate 250 g/ha): 0 | Wild oats plant response rating (wild oat; [4]): 0 | Plant response rating, Wild oats (wild oat; [5]): 0 | Nutsedge plant response rating (purple nutsedge; [6]): 4 | Plant response rating, Nutsedge (purple nutsedge; [8]): 0 | Nutsedge plant response rating (purple nutsedge; [2]): 0 | Nutsedge plant response rating (purple nutsedge; [3]): 0 | Nutsedge plant response rating (0 to 10 scale) (purple nutsedge; Preemergence, Rate 250 g/ha): 0 | Nutsedge plant response rating (purple nutsedge; [4]): 0 | Morningglory plant response rating (morningglory; [6]): 0 | Morningglory plant response rating (morningglory; [7]): 4 | Plant response rating, Morningglory (morningglory; [8]): 10 | Morningglory plant response rating (morningglory; [2]): 0 | Morningglory plant response rating (morningglory; [3]): 0 | Morningglory plant response rating (0 to 10 scale) (morningglory; Preemergence, Rate 250 g/ha): 0 | Morningglory plant response rating (morningglory; [4]): 0 | Plant response rating, Morningglory (morningglory; [9]): 4 | B. signalgrass plant response rating (surinam grass; [6]): 0 | B. signalgrass plant response rating (surinam grass; [7]): 0 | Plant response rating, B. signalgrass (surinam grass; [8]): 0 | B. signalgrass plant response rating (surinam grass; [2]): 0 | B. signalgrass plant response rating (surinam grass; [3]): 0 | B. signalgrass plant response rating (0 to 10 scale, 0 is no effect, 10 is complete control) (surinam grass; Preemergence, Rate 250 g/ha): 2 | B. signalgrass plant response rating (surinam grass; [4]): 9 | Plant response rating, B. signalgrass (surinam grass; [9]): 0 | Giant foxtail plant response rating (giant foxtail; [6]): 0 | Giant foxtail plant response rating (giant foxtail; [7]): 0 | Plant response rating, Giant foxtail (giant foxtail; [8]): 0 | Giant foxtail plant response rating (giant foxtail; [2]): 3 | Giant foxtail plant response rating (giant foxtail; [3]): 9 | Giant foxtail plant response rating (0 to 10 scale) (giant foxtail; Preemergence, Rate 250 g/ha): 10 | Giant foxtail plant response rating (giant foxtail; [4]): 9 | Plant response rating, Giant foxtail (giant foxtail; [9]): 0 | Plant response rating, Redroot pigweed (pigweed; [1]): 0 | Redroot pigweed plant response rating (pigweed; [2]): 0 | Redroot pigweed plant response rating (pigweed; [3]): 0 | Redroot pigweed plant response rating (0 to 10 scale) (pigweed; Preemergence, Rate 250 g/ha): 8 | Redroot pigweed plant response rating (pigweed; [4]): 9 | Plant response rating, Redroot pigweed (pigweed; [5]): 0
